Series [1] concerns the target T1, full-length beta-Catenin (Uniprot ID P35222) (Homo sapiens, UniProt P35222).
T1 construct: 10 nM full-length beta-Catenin (Uniprot ID P35222)
T1 sequence (P35222 1-781): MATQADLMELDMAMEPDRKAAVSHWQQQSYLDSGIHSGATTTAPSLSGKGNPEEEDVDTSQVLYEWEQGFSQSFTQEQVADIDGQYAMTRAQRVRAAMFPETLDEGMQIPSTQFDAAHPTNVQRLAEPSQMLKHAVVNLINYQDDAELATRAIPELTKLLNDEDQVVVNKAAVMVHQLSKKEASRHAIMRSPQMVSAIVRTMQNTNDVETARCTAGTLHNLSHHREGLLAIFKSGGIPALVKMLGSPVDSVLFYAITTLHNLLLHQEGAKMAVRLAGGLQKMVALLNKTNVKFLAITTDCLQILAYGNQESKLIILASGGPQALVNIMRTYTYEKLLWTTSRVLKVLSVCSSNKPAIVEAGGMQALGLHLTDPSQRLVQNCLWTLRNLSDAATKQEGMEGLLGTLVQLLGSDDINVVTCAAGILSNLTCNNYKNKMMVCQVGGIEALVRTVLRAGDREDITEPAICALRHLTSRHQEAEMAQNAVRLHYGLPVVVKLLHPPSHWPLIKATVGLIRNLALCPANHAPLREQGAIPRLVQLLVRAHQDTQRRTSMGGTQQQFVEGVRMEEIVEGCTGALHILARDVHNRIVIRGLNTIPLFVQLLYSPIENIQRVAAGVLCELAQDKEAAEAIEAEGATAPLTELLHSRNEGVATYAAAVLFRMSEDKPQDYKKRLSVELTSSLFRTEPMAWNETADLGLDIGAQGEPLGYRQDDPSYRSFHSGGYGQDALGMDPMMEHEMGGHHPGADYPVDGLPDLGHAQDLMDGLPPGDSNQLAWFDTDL
The experiment in a line: Fluorescence polarization IC50 (beta-catenin / 5FAM-TCF4 10-53 competition). It is filed as binding. Background: In fluorescence polarisation assays a small probe gives low polarisation when free and higher when bound to something large.

The nature of series [2]: CHI Log D procedure. It is filed as physicochemical. The note with it: for CHI Log D: pH 7.4; for chromatographic logD: pH 7.4, CHI Log D.
Series [3] is described as follows: Solubility in PBS. In kind it is physicochemical. In outline: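 The PBS solution was ultracentrifuged and the supernatant analyzed by HPLC. Its peak area was divided by that of a 50 μM peptide DMSO reference injection and multiplied by 50 uM to give solubility.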
Setting [4] is: fluorescence polarization, read-out: beta-Catenin FP IC50.

We go through twelve compounds from US20240116985A1, “STAPLED PEPTIDES AND METHODS THEREOF” (priority 2020, published 2024).

Values after ≈ are worked out from the molar mass of the structure shown. Like-named read-outs stand apart in the source and are kept apart here.

`CC(=O)N1CCC[C@]12CC=CCCCC1(CCCC=CCCCOC(=O)N3CC[C@@](C(=O)N[C@@H](Cc4ccsc4)C(=O)N[C@@H](Cc4csc5ccccc45)C(=O)N[C@@H](Cc4c[nH]cn4)C(N)=O)(C3)NC(=O)[C@H](CC(N)=O)NC(=O)[C@H](Cc3ccccc3)NC(=O)[C@H](C)NC(=O)[C@H](C)NC(=O)[C@H](CCC(=O)O)NC(=O)[C@H](CC(=O)O)NC1=O)NC(=O)[C@H](CC(C)(C)C)NC(=O)[C@H](CC(=O)O)NC2=O` (stereo partly drawn) [I-698, Ac-PL3-Asp-Npg-B5-Asp-Glu-Ala-Ala-Phe-Asn-PyrS2-3Thi-BztA-His-NH2]: the IC50 in series [1] (setting [4]) amounted to 0.005 µM. Moreover, the “CHI Log D” value in series [2] amounted to 2.153. The Solubility (in general, the concentration that dissolves in the medium under given conditions) in series [3] was found to be 43 µM (≈ 83.5 µg/mL).

As to `CC[C@H](C)[C@@H]1NC(=O)[C@H](CC(=O)O)NC(=O)[C@]2(CC=CCCCC3(CCCC=CCCCCCC[C@@](C)(C(=O)N[C@@H](Cc4ccccc4)C(=O)N[C@@H](Cc4csc5ccccc45)C(=O)N[C@@H](CCC(N)=O)C(N)=O)NC(=O)[C@H](CC(N)=O)NC(=O)[C@H](Cc4ccccc4)NC(=O)[C@H](C)NC(=O)[C@H](C)NC(=O)[C@H](CN(CC(=O)O)CC(F)(F)F)NC(=O)[C@H](CC(=O)O)NC3=O)NC1=O)CCCN2C(C)=O` (stereo partly drawn) [I-699, Ac-PL3-Asp-Ile-B5-Asp-TfeGA-Ala-Ala-Phe-Asn-S8-Phe-BztA-Gln-NH2], the IC50 in series [1] (setting [4]) worked out at 0.043 µM. In series [2], the chromatographic logD (as a rule, lipophilicity estimated from chromatographic retention) was determined as 2.63. The “Solubility” value in series [3] is 50 µM (≈ 98.3 µg/mL).

For `CC[C@H](C)[C@@H]1NC(=O)[C@H](CC(=O)O)NC(=O)[C@]2(CC=CCCCC3(CCCC=CCCCCCC[C@@](C)(C(=O)N[C@@H](Cc4ccsc4)C(=O)N[C@@H](Cc4csc5ccccc45)C(=O)N[C@@H](Cc4c[nH]cn4)C(N)=O)NC(=O)[C@H](CC(N)=O)NC(=O)[C@H](Cc4ccccc4)NC(=O)[C@H](C)NC(=O)[C@H](C)NC(=O)[C@H](CN(CC(=O)O)CC(F)(F)F)NC(=O)[C@H](CC(=O)O)NC3=O)NC1=O)CCCN2C(C)=O` (stereo partly drawn) [I-702, Ac-PL3-Asp-Ile-B5-Asp-TfeGA-Ala-Ala-Phe-Asn-S8-3Thi-BztA-His-NH2], in series [1] (setting [4]), the IC50 turned out to be 0.076 µM. Also, in series [2], the chromatographic logD stood at 2.75. Further, the Solubility in series [3] (Solubility (uM)) was 40 µM (≈ 79.3 µg/mL).

As for `CC(=O)N1CCC[C@]12CC=CCCCC1(CCCC=CCCCCCC[C@@](C)(C(=O)N[C@@H](Cc3ccsc3)C(=O)N[C@@H](Cc3csc4ccccc34)C(=O)N[C@@H](Cc3c[nH]cn3)C(N)=O)NC(=O)[C@H](CC(N)=O)NC(=O)[C@H](Cc3ccccc3)NC(=O)[C@H](C)NC(=O)[C@H](C)NC(=O)[C@H](CN(CC(=O)O)CC(F)(F)F)NC(=O)[C@H](CC(=O)O)NC1=O)NC(=O)[C@H](CC(C)(C)C)NC(=O)[C@H](CC(=O)O)NC2=O` (stereo partly drawn) [I-705, Ac-PL3-Asp-Npg-B5-Asp-TfeGA-Ala-Ala-Phe-Asn-S8-3Thi-BztA-His-NH2], the IC50 in series [1] (setting [4]) is 0.058 µM. The chromatographic logD in series [2] was found to be 2.89. The compound also gave a Solubility in series [3] (Solubility (uM)) of 25 µM (≈ 49.9 µg/mL).

As for `CC(=O)N1CCC[C@]12CC=CCCCC1(CCCC=CCCCCCC[C@@](C)(C(=O)N[C@@H](Cc3ccccc3)C(=O)N[C@@H](Cc3csc4ccccc34)C(=O)N[C@@H](CCC(N)=O)C(N)=O)NC(=O)[C@H](CC(N)=O)NC(=O)[C@H](Cc3ccccc3)NC(=O)[C@H](C)NC(=O)[C@H](C)NC(=O)[C@H](CN(CC(=O)O)CC(F)(F)F)NC(=O)[C@H](CC(=O)O)NC1=O)NC(=O)[C@H](CC1CCCCC1)NC(=O)[C@H](CC(=O)O)NC2=O` (stereo partly drawn) [I-706, Ac-PL3-Asp-Cha-B5-Asp-TfeGA-Ala-Ala-Phe-Asn-S8-Phe-BztA-Gln-NH2], in series [1] (setting [4]), the IC50 came out at 0.057 µM. The same compound came in with a chromatographic logD in series [2] of 2.99. Further, in series [3] (Solubility (uM)), the concentration in solution (Solubility) came to 48 µM (≈ 96.3 µg/mL).

As for `CC(=O)N1CCC[C@]12CC=CCCCC1(CCCC=CCCCCCC[C@@](C)(C(=O)N[C@@H](Cc3ccsc3)C(=O)N[C@@H](Cc3csc4ccccc34)C(=O)N[C@@H](CCC(N)=O)C(N)=O)NC(=O)[C@H](CC(N)=O)NC(=O)[C@H](Cc3ccccc3)NC(=O)[C@H](C)NC(=O)[C@H](C)NC(=O)[C@H](CN(CC(=O)O)CC(F)(F)F)NC(=O)[C@H](CC(=O)O)NC1=O)NC(=O)[C@H](CC1CCCCC1)NC(=O)[C@H](CC(=O)O)NC2=O` (stereo partly drawn) [I-707, Ac-PL3-Asp-Cha-B5-Asp-TfeGA-Ala-Ala-Phe-Asn-S8-3Thi-BztA-Gln-NH2], the IC50 in series [1] (setting [4]) and in series [1] (read-out: FP EC50) was 0.046 µM in each case. Besides, the “CHI Log D” value in series [2] worked out at 2.963. For the same compound, the “Solubility” value in series [3] was determined as 48 µM (≈ 96.6 µg/mL).

For the compound `CC(=O)N1CCC[C@]12CC=CCCCC1(CCCC=CCCCCCC[C@@](C)(C(=O)N[C@@H](Cc3ccsc3)C(=O)N[C@@H](Cc3csc4ccccc34)C(=O)N[C@@H](Cc3c[nH]cn3)C(N)=O)NC(=O)[C@H](CC(N)=O)NC(=O)[C@H](Cc3ccccc3)NC(=O)[C@H](C)NC(=O)[C@H](C)NC(=O)[C@H](CN(CC(=O)O)CC(F)(F)F)NC(=O)[C@H](CC(=O)O)NC1=O)NC(=O)[C@H](CC1CCCCC1)NC(=O)[C@H](CC(=O)O)NC2=O` (stereo partly drawn) [I-709, Ac-PL3-Asp-Cha-B5-Asp-TfeGA-Ala-Ala-Phe-Asn-S8-3Thi-BztA-His-NH2], the IC50 in series [1] (setting [4]) was 0.054 µM. Moreover, in series [2], the chromatographic logD stood at 3.11. For the same compound, the “Solubility” value in series [3] worked out at 10 µM (≈ 20.2 µg/mL).

In the case of `CC[C@H](C)[C@@H]1NC(=O)[C@H](CC(=O)O)NC(=O)[C@]2(CC=CCCCC3(CCCC=CCCCCCC[C@@](C)(C(=O)N[C@@H](Cc4ccccc4)C(=O)N[C@@H](Cc4csc5ccccc45)C(=O)N[C@@H](CCC(N)=O)C(N)=O)NC(=O)[C@H](CCC(N)=O)NC(=O)[C@H](Cc4ccccc4)NC(=O)[C@H](C)NC(=O)[C@H](C)NC(=O)[C@H](CCC(=O)O)NC(=O)[C@H](CC(=O)O)NC3=O)NC1=O)CCCN2S(C)(=O)=O` (stereo partly drawn) [I-710, MeSO2-PL3-Asp-Ile-B5-Asp-Glu-Ala-Ala-Phe-Gln-S8-Phe-BztA-Gln-NH2], the IC50 in series [1] (setting [4]) and in series [1] (read-out: FP EC50) was 0.073 µM each time. Moreover, the “CHI Log D” value in series [2] amounted to 2.143. Further, the “Solubility” value in series [3] came to 45 µM (≈ 86.4 µg/mL).

Turning to `CC[C@H](C)[C@@H]1NC(=O)[C@H](CC(=O)O)NC(=O)[C@]2(CC=CCCCC3(CCCC=CCCCCCC[C@@](C)(C(=O)N[C@@H](Cc4ccccc4)C(=O)N[C@@H](Cc4csc5ccccc45)C(=O)N[C@@H](CCC(N)=O)C(N)=O)NC(=O)[C@H](CCC(N)=O)NC(=O)[C@H](Cc4ccccc4)NC(=O)[C@H](C)NC(=O)[C@H](C)NC(=O)[C@H](CCC(=O)O)NC(=O)[C@H](CC(=O)O)NC3=O)NC1=O)CCCN2S(C)(=O)=O` (stereo partly drawn) [I-711, MeSO2-PL3-Asp-Ile-B5-Asp-Glu-Ala-Ala-Phe-Gln-S8-Phe-BztA-Gln-NH2], the IC50 in series [1] (setting [4]) and in series [1] (read-out: FP EC50) was 0.088 µM throughout. The “CHI Log D” value in series [2] was determined as 2.132. In series [3], the “Solubility” value came out at 48 µM (≈ 92.1 µg/mL).

`CC(=O)N1CCC[C@]12CC=CCCCC1(CCCC=CCCCCCC[C@@](C)(C(=O)N[C@@H](Cc3ccccc3)C(=O)N[C@@H](Cc3csc4ccccc34)C(N)=O)NC(=O)[C@H](CC(N)=O)NC(=O)[C@H](Cc3ccccc3)NC(=O)[C@H](C)NC(=O)[C@H](C)NC(=O)[C@H](CCC(=O)O)NC(=O)[C@H](CC(=O)O)NC1=O)NC(=O)[C@H](CC(C)(C)C)NC(=O)[C@H](CC(=O)O)NC2=O` (stereo partly drawn) [I-712, Ac-PL3-Asp-Npg-B5-Asp-Glu-Ala-Ala-Phe-Asn-S8-Phe-BztA-NH2]: the IC50 in series [1] (setting [4]) and in series [1] (read-out: FP EC50) was 0.092 µM in each case. The “CHI Log D” value in series [2] turned out to be 2.778. Also, the “Solubility” value in series [3] is 42 µM (≈ 73.7 µg/mL).

`CC(=O)N1CCC[C@]12CC=CCCCC1(CCCC=CCCCCCC[C@@](C)(C(=O)N[C@@H](Cc3ccccc3)C(=O)N[C@@H](Cc3csc4ccccc34)C(N)=O)NC(=O)[C@H](CC(N)=O)NC(=O)[C@H](Cc3ccccc3)NC(=O)[C@H](C)NC(=O)[C@H](C)NC(=O)[C@H](CCC(=O)O)NC(=O)[C@H](CC(=O)O)NC1=O)NC(=O)[C@H](CC(C)(C)C)NC(=O)[C@H](CC(=O)O)NC2=O` (stereo partly drawn) [I-713, Ac-PL3-Asp-Npg-B5-Asp-Glu-Ala-Ala-Phe-Asn-S8-Phe-BztA-NH2]: the IC50 in series [1] (setting [4]) and in series [1] (read-out: FP EC50) was 0.07 µM in each case. Besides, the “CHI Log D” value in series [2] was found to be 2.851. For the same compound, the “Solubility” value in series [3] was 48 µM (≈ 84.2 µg/mL).

As for `CC[C@H](C)[C@@H]1NC(=O)[C@H](CC(=O)O)NC(=O)[C@]2(CC=CCCCC3(CCCC=CCCCCCC[C@@](C)(C(=O)N[C@@H](Cc4ccccc4)C(=O)N[C@@H](Cc4csc5ccccc45)C(N)=O)NC(=O)[C@H](CC(N)=O)NC(=O)[C@H](Cc4ccccc4)NC(=O)[C@H](C)NC(=O)[C@H](C)NC(=O)[C@H](CCC(=O)O)NC(=O)[C@H](CC(=O)O)NC3=O)NC1=O)CCCN2C(C)=O` (stereo partly drawn) [I-714, Ac-PL3-Asp-Ile-B5-Asp-Glu-Ala-Ala-Phe-Asn-S8-Phe-BztA-NH2], the IC50 in series [1] (setting [4]) and in series [1] (read-out: FP EC50) was 0.131 µM in each case. The “CHI Log D” value in series [2] was found to be 2.698. The “Solubility” value in series [3] came to 43 µM (≈ 74.9 µg/mL).
